Results on 12 molecules are retold here after paper PMC11774939, “Optimizing lipopeptide bioactivity: The impact of non-ionic surfactant dressing” (Journal of Pharmaceutical Analysis, 2024).

Like-named read-outs stand apart in the source and are kept apart here. Peptide text beside a SMILES is read from it. * marks the point of attachment. Palmitoyl = CCCCCCCCCCCCCCCC(=O)* Where only a bound is given, the exact number is not on record here.

The conditions of data set [1]: cited from earlier work.
For data set [2] the following is noted: cited from earlier work. The text has this: Supplement mmc1.docx, table 1: Table S1. Lipopeptide-based drugs, with their characteristics, disease target, and the year of approval. | column: Plasma protein binding
The source holds these as a separate data set.

Data set [3] deals with HT-29 colorectal adenocarcinoma cells. Briefly: In vitro antitumor effect, AlamarBlue. The data set is classed as cell-based, human. As to conditions: 5 μM pCM15 lipopeptide, 24 h treatment, vs medium-treated control, mean ± SD, n = 4. The procedure: All data are presented as mean ± SD (n = 4). Statistical analysis was performed using one-way analysis of variance (ANOVA), followed by Tukey's post-hoc test. Statistical significances were denoted as ^∗P < 0.05, ^∗∗P < 0.01, and ^∗∗∗P < 0.001.
(The colour change of resazurin is a common sign of viable cells or microbes.)

A short description of data set [4]: Encapsulation efficacy: HPLC of lipopeptide passing 0.2 μm filter. Format: physicochemical. As to conditions: poloxamer 5 g/L in PBS, peptide pre-dissolved in DMSO (pL1 200 μM, pCM15 100 μM, pATIPC 10 μM); centrifuged through 0.2 μm nylon filter, HPLC AUC vs fully solubilized lipopeptide. As for the experimental part:
Section S3 in the Supplementary data contains the detailed characterization of the mixed micelles (Fig. S7A). First, calibration curves were plotted for each lipopeptide in a medium in which the compounds were perfectly soluble, namely in eluent B (0.1% TFA in acetonitrile:water (4:1, V/V) solution) (Figs. S7B−D). Next, poloxamer-lipopeptide constructs were prepared as follows: the lipopeptide samples were pre-dissolved in DMSO and then mixed with the poloxamer/PBS solutions, left shaking overnight. In the next day, the concentration was adjusted by adding PBS to the solutions. The composition of the samples was as follows: poloxamer 5 g/L and peptides (pL1 200 μM, pCM15 100 μM, and pATIPC 10 μM). Then, lipopeptide/poloxamer constructs were centrifuged using a 0.2 μm nylon filter, diluted twice with eluent B, and injected to the HPLC column. […] The highest encapsulation efficacy was measured for the shortest lipopeptide pL1, and all three poloxamers formed mixed micelles with the lipopeptides in more than 80%. It was assumed that the filtered part of the samples contains the lipopeptide aggregates with particle size of […].
Fig. S7. Formulation of Lipopeptides with Poloxamers. Overview of the analytical characterization of the samples (A). Calibration curves for the fully solubilized lipopeptides with the linear regression equation (B-D). […]

The nature of data set [5]: Antigen release, dialysis membrane assay. As to conditions: pATIPC-Plur123 mixed micelles (80 µM peptide, Plur123 40 g/L in PBS), dialysis 10K MWCO, 37 °C, after 4 h, HPLC AUC vs 0 h. The data set is classed as physicochemical. As for the experimental part: Lipopeptide release was assessed by incubating the mixed micelles in PBS at 37 °C for 6 hours, using the dialysis membrane method. Briefly, the pATIPC lipopeptide (80 µM) was dissolved in Plur123 (40 g/L, in PBS), mixed, then centrifuged using a 0.2 µm Nylon filter to remove the aggregated peptide particles. The formation of the mixed micelles was checked by DLS and the peptide content was measured by HPLC, as described above. Mixed micelle solution was then loaded into a Slide-A-Lyzer Mini Dialysis Device (10K MWCO) (Thermo Fisher Scientific, Waltham, MA, USA) and incubated at 37 °C using PBS as release medium. At 0, 1, 4 and 6 h, the micelles within the dialysis membrane were taken for measurements of particle size and distribution by DLS.

Data set [6] in a line: DLS of peptide-loaded poloxamer micelles. As to conditions: lipopeptide-loaded Plur123 micelles, DLS 37 °C. Format: physicochemical. The procedure: Peptide-loaded poloxamer micelles were prepared by solubilizing the peptides in 50 g/L poloxamer solutions in PBS (pH 7.4). The peptides were previously dissolved in DMSO, and then the poloxamer solutions were added. The final DMSO content was 5%. The solutions were left shaking overnight to allow enough time for solubilization. Before the measurements, PBS was added to the solutions to reach 5 g/L poloxamer concentration. In the biological experiments, these samples were diluted twice with the corresponding culture media.
The average hydrodynamic diameter (dH) and polydispersity of the peptide-loaded micelles were determined using a dynamic light scattering (DLS) instrument (NanoLab 3D^TM, LS Instruments, Fribourg, Switzerland) based on three-dimensional (3D) modulation technology. A fibre-coupled diode laser operating at 638 nm served as the light source. The measurements were performed at a detection angle of 90° and at temperatures of 37.00 ± 0.02 °C. The recorded autocorrelation functions were analyzed using the second order cumulant expansion method. Before the measurements, the samples were filtered with a 0.2 μm syringe filter.

Another data set deals with MRSA strain. The arrangement: method as in PMID 34822969. The note with it: cited from earlier work. An excerpt:
(§1) However, since this peptide contains only four amino aci ...

Another data set deals with S. aureus. Set-up: method as in 2 sources, one per row (each row's own in cited_ref): ref 69 = [69]; PMID 34822969; doi:10.1016/j.micpath.2021.105301; 69 Roshanak S. Shahidi F. Tabatabaei Yazdi F. Buforin I an alternative to conventional antibiotics: Evaluation of the antimicrobial properties, stability, and safety Microb. Pathog. 161 2021 105301 10 ||| ref 53,70 = [53]; PMID 10890923; doi:10.1073/pnas.150518097; 53 Park C.B. Yi K.S. Matsuzaki K. Structure-activity analysis of buforin II, a histone H2A-derived antimicrobial peptide: The proline hinge is responsible for the cell-penetrating ability of buforin I || [70]; 70 Lee H. Yang S. Dimerization of cell-penetrating buforin II enhances antimicrobial properties J. Anal. Sci. Technol. 12 2021 9. As to conditions: cited from earlier work.
From the text: as §1

Consider Daptomycin, for which the Route of elimination entry in data set [1] (approved drug characteristics) is reported as “Urinary excretion”. Further, the Plasma protein binding in data set [2] (approved drug characteristics) is recorded as 90-94%.
For `CCCCCCCCCCCCCCCC(=O)N[C@@H](CCCCN)C(=O)N[C@@H](Cc1c[nH]c2ccccc12)C(=O)N[C@@H](CCCCN)C(=O)N[C@@H](CC(C)C)C(=O)N[C@@H](Cc1ccccc1)C(=O)N[C@@H](CCCCN)C(=O)N[C@@H](CCCCN)C(=O)N[C@H](C(=O)NCC(=O)N[C@@H](C)C(=O)N[C@H](C(=O)N[C@@H](CC(C)C)C(=O)N[C@@H](CCCCN)C(=O)N[C@H](C(=O)N[C@@H](CC(C)C)C(N)=O)C(C)C)C(C)C)[C@@H](C)CC` [pCM15] (Palmitoyl-KWKLFKKIGAVLKVL-NH2), the Cytotoxicity in data set [3] is on record as 35.0% ± 4.8.
Regarding Dalbavancin, in data set [1] (approved drug characteristics), the Route of elimination entry was “Mainly through fecal excretion”. In data set [2] (approved drug characteristics), the Plasma protein binding is listed as 93%.
Take Insulin detemir: in data set [1] (in vivo), the Half-life is 5 to 7 h and the Route of elimination entry is “Mainly urinary excretion”. Further, the Plasma protein binding in data set [2] is on record as 98%.
Consider Caspofungin, for which, in data set [1] (approved drug characteristics), the Half-life is 9 to 11 h; the Route of elimination entry is “Urinary and fecal excretion”. Besides, the Plasma protein binding in data set [2] (approved drug characteristics) is listed as 97%.
As for Insulin degludec, in data set [1] (approved drug characteristics), the Half-life was 25 h and the Route of elimination entry was “Mainly urinary excretion”. The Plasma protein binding in data set [2] (approved drug characteristics) is on record as over 99%.
For the molecule Polymyxin B, in data set [1] (approved drug characteristics), the Half-life is 6 to 11.5 h and the Route of elimination result was “Mainly urinary excretion”.
For the molecule Colistin, in data set [1] (in vivo), the Half-life is on record as 5 h and the Route of elimination result is “Mainly urinary excretion”. In addition, the Plasma protein binding in data set [2] is reported as 50%.
For “pal-KLVANNTRLTKPK- (FFGINTIPIAC)-GGLIDIAPHQISSV [pATIPC]”, in data set [4], the “Encapsulation (lipopeptide in form <0.2 μm, in mixed micelles)” value is reported as “around 60%”. Besides, in data set [5], the “pATIPC antigen remaining inside the micelles” value was “more than 50%”. For the same molecule, the “Increase in particle size after one week of storage as a solution” value in data set [6] was 10 nm.
Take Micafungin: in data set [1] (approved drug characteristics), the Half-life was 14 to 17 h and the Route of elimination result is “Mainly through fecal excretion”. Further, in data set [2] (approved drug characteristics), the Plasma protein binding is over 99%.
In the case of “AGRGKQGGKVRAKAKTRSSRAGLQFPVGRVHRLLRKGNY [Buforin I]”, the “MIC for the MRSA strain” value in the data set with MRSA strain is 14 µg/mL. For the same molecule, the “Concentration with activity against S. aureus” value in the data set on S. aureus is 10 µg/mL.
Consider Rezafungin, for which, in data set [1] (approved drug characteristics), the Half-life is over 130 h and the Route of elimination result is listed as “Mainly through fecal excretion”. Further, the Plasma protein binding in data set [2] (approved drug characteristics) is recorded as 87-99%.
